Experimental data from patent US12258424B2, “Polypeptides and compositions comprising the same” (priority 2020, dated 2025).
Residues, ends and D or L forms follow the SMILES beside them.

How the values were obtained:
[1] = tested on: Jurkat T cells co-cultured with DU-145 cancer cells; assay: Jurkat T cell proliferation in co-culture with DU-145 cells (CellTiter-Glo); format: cell-based, human; conditions: peptide 5 μM, 24 hours
Experimental: (§1) Proliferation and Apoptosis Assays. […] Briefly, 3×10^4 Jurkat T cells were cultured alone or co-cultured with 1.5×10^5 DU-145 cancer cells in a 24-well plate for the proliferation assay. For the apoptosis assay, 6×10^4 Jurkat T cells were cultured alone or co-cultured with 3×10^5 DU-145 cancer cells in a 6-well plate. After incubation with the anti-PD-L1 peptides (5 μM) or anti-PD-L1 antibody (1 μM) for 24 hours, Jurkat T cells were harvested from the supernatant. Proliferation of Jurkat cells was determined using the CellTiter-Glo luminescent cell viability assay (Promega, WI), and apoptosis of the cells were determined using the Dead Cell Apoptosis Kit with Annexin V Alexa Fluor® 488 and Propidium Iodide (Thermo-Fisher Scientific, Pittsburgh, PA) as we described before^21.

[2] = tested on: CT26 tumor-bearing Balb/C mice; assay: Survival of CT26 tumor-bearing Balb/C mice; format: in vivo, mouse
Description: Animal Study. The animal protocol was approved by the University of Missouri-Kansas City, Institutional Animal Care and Use Committee (IACUC). Five-week old male and female Balb/c mice were purchased from Charles Rivers Laboratories (Wilmington, Mass.) and housed in a temperature and humidity controlled room on a 12-hour light-dark cycle. Approximately 5×10^5 CT26 cells were subcutaneously injected into the right flank. The mice were randomly divided into five different groups (10 mice/group, 50% female, 50% male). The mice were intraperitoneally injected with 2 mg/kg peptide daily when the tumor size reached 50-100 mm^3. The anti-mouse PD-L1 antibody (10F.9G2, BioXcell) was administrated as a positive control at a dose of 10 mg/kg every two days. The tumor size was assessed with a caliper and calculated with the formula 0.5×length×width^2. ELISA kits of PD-L1 (Cat #DY1019-05), IFNγ (Cat #DY485-05), and IL-6 (Cat #DY406-05) were used to measure the expressions of PD-L1, IFNγ, and IL-6, respectively, in tumors as per the company's instructions (R & D Systems, Minneapolis, MN).
In this Example, mice were intraperitoneally injected with the CLP002 (SEQ ID NO:2) and CLP003 (SEQ ID NO:3) peptides daily or the anti-mouse PD-L1 antibody every other day from day 4 to day 17 (see survival curves in FIG. 7a). Specifically, CT26 tumor-bearing Balb/C mice (n=10, 5 male and 5 female) were intraperitoneally injected with the anti-PD-L1 peptides (2 mg/Kg) daily and the anti-mouse PD-L1 antibody (10 mg/Kg) every other day from day 4 to day 17. GraphPad Prism 7 software (San Diego, Calif.) was used for statistical analysis. Comparison of two survival curves were conducted using the Gehan-Breslow-Wilcoxon test. […] By contrast, only 20% of the mice in the CLP002 (SEQ ID NO:2) group were dead by day 17.

[3] = target: human PD-L1/CD80 interaction (Homo sapiens, UniProt Q9NZQ7); assay: Blockade of the CD80/PD-L1 interaction; format: binding; conditions: at 10 μM, FIG. 8a
[4] = tested on: Jurkat T cells co-cultured with DU-145 cancer cells; assay: Jurkat T cell apoptosis in co-culture with DU-145 cells (Annexin V/PI); format: cell-based, human; conditions: co-culture with DU-145 (15.1% untreated); peptide 5 μM or antibody 1 μM, 24 hours
Experimental: as §1

[5] = tested on: CD8+ T cells in CT26 tumor tissues; assay: IHC staining of CD8+ T cells in CT26 tumor tissues; format: in vivo, mouse
Experimental: Immunohistochemistry (IHC) Staining. Tumor tissues were fixed in 10% formalin, embedded in paraffin, sectioned, and mounted on glass slides by Truman Medical Centers Anatomic Pathology Core (Kansas City, MO). The slides were heated in Tris buffer (pH 9.0) for 45 min to recover antigen. After deparaffinization and rehydration, the sections were stained with the anti-mouse CD8 alpha antibody (Abcam, ab209775) overnight at 4° C. The slides were incubated with a biotinylated goat anti-rabbit secondary antibody, followed by the DAB chromogen mixture. Four sections (2 male and 2 female) were imaged in each group. For each section, 3 regions were randomly selected for imaging.

DU145 cancer cell = format: cell-based, human
Experimental: Ninety-six-well plates were coated with 100 ng of PD-L1 protein (G&P Biosciences, human PD-L1 ECD, cat #FCL0784B. mouse PD-L1, cat #FCL3502B) and later blocked with 2% BSA for 2 hours at room temperature. Various concentrations of peptides were loaded into the wells and incubated for 1 hour at room temperature. […] Streptavidin-HRP (R & D systems) and chromogenic substrate were added into the wells. OD450 was then recorded and referenced to OD540.
The blocking efficiency of the anti-PD-L1 peptides at 10 μM (FIG. 2c). […] The IC50 of each peptide was also determined using recombinant human PD-L1 protein and DU-145 cancer cells.

[6] = tested on: 3D tumor spheroids of MDA-MB-231 cells; assay: 3D tumor spheroid penetration assay; format: cell-based, human; conditions: Cy5-labeled, 2 and 6 hours
Experimental: 3D Tumor Spheroid Penetration Assay. 3D spheroids of MDA-MB-231 cells were generated using the Spheroid Formation Extracellular Matrix (ECM) as per the company's protocol (Amsbio, Cambridge, MA). Briefly, 3,000 tumor cells were mixed with 50 μL Spheroid Formation ECM and loaded into a Corning™ 96-well Ultra-low Attachment Treated Spheroid Microplate (Corning, Pittsburgh, PA). The plate was centrifuged at 200 g for 3 min at 4° C. The cells were then incubated at 37° C. until the diameter reached approximately 700 μm. The Cy5-labeled CLP002 peptide and anti-PD-L1 antibody were incubated with the spheroids for 2 or 6 hours. After washing, penetration of the peptide and antibody inside the tumor spheroids was determined using confocal microscopy.

Sequence of human PD-L1/CD80 interaction (Q9NZQ7 19-238 limits assumed): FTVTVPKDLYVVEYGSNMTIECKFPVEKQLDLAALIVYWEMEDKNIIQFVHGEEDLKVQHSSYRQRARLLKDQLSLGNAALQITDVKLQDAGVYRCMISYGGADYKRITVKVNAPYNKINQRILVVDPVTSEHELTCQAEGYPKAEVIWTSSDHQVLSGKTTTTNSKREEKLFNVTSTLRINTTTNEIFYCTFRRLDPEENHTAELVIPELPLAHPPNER

CC(C)C[C@H](NC(=O)[C@H](CC(N)=O)NC(=O)[C@H](Cc1c[nH]c2ccccc12)NC(=O)[C@@H](NC(=O)[C@H](Cc1ccc(O)cc1)NC(=O)[C@H](Cc1ccc(O)cc1)NC(=O)[C@H](CO)NC(=O)[C@H](CCCNC(=N)N)NC(=O)[C@H](Cc1c[nH]cn1)NC(=O)[C@@H](N)Cc1c[nH]c2ccccc12)[C@@H](C)O)C(=O)N[C@@H](CC(N)=O)C(=O)N[C@H](C(=O)O)[C@@H](C)O [CLP002] (H-WHRSYYTWNLNT-OH; N-terminus and C-terminus assumed)
Effect on Jurkat T cell proliferation [1]: restored Jurkat T cell proliferation | Tumor growth in the survival study ([2]; Example 7, individual growth curves): inhibited tumor growth | Mice showing a response to treatment (in words) ([2]; n=10): Eight mice showed a response | Mice dead by day 17 ([2]; n=10, saline group 90%): 20% | Survival of tumor-bearing mice ([2]; treatment from day 4 to day 17): improved the survival | Blocking efficiency against CD80/PD-L1 interaction [3]: ~48% | Apoptosis of Jurkat cells [4]: 10.2% | Density of CD8+ T cells in tumor tissues [5]: significantly increased | Location of CD8+ T cells in the tumor [5]: penetration of CD8^+ T cells into the tumor tissue | IC50 (DU145 cancer cell; 2 h): 1430 nM | Blocking Efficiency (%) (DU145 cancer cell; DU-145 cancer cells): 80% | Tumor spheroid penetration (in words) ([6]; confocal microscopy): better tumor penetration than the antibody | Depth of penetration from the periphery of the spheroids ([6]; spheroids ~700 μm): approximately 250 μm
